{
  "source": "paper PMC8699473",
  "about": "“An Easily Expandable Multi-Drug LC-MS Assay for the Simultaneous Quantification of 57 Oral Antitumor Drugs in Human Plasma” (Cancers, 2021)",
  "key": {"[1]": {"test": "Long-term stability in spiked pooled human plasma"}, "[2]": {"test": "Freeze-thaw stability in spiked pooled human plasma", "type": "physicochemical"}, "[3]": {"set-up": "method as in supplement references [1-55] as printed per drug", "settings": "minimum steady-state blood plasma concentration after multiple dose administration; ref supplement references [1-55] per drug; cited from earlier work"}, "[4]": {"test": "Short-term stability in spiked pooled human plasma (bench-top, 4 °C, 56 °C)"}, "[5]": {"test": "Autosampler stability of ready for injection samples", "type": "physicochemical, human"}, "[6]": {"test": "Plasma concentrations in patients on oral antitumor therapy (LC-MS)", "type": "in vivo, human", "description": "The liquid chromatography-mass spectrometer system consisted of a Thermo Scientific Dionex UltiMate^TM 3000 with an integrated and temperature controlled autosampler (Thermo Fisher Scientific, Dreieich, Germany). An Acquity UPLC® BEH C18 column (2.1 × 100 mm, 1.7 µm; Waters, Milford, CT, USA) equipped with an Acquity UPLC® BEH C18 VanGuard^TM Pre-Column (2.1 × 5 mm, 1.7 µm; Waters, Milford, CT, USA) was used for chromatographic separation. The Q-Exactive^TM Focus mass spectrometer (MS) was hyphenated with a heated electrospray ionization (HESI) source (both from Thermo Fisher Scientific, Dreieich, Germany).\nChromatographic separation was achieved using a gradient elution with water containing 0.5% (v/v) FA (eluent A) and MeOH with 0.1% (v/v) FA (eluent B). The injection volume was 5 µL. The gradient program is shown in Supplement Table S2. The flow rate was 0.5 mL/min with a total run time of 15 min. The column heater was maintained at 50 °C and the autosampler temperature was 4 °C.\nThe following MS and HESI settings were maintained for all analyses: Sheath gas, auxiliary gas, and sweep gas flow rates were set to 60, 20, and 0, respectively. The spray voltage was 4000 V. Both capillary and auxiliary gas heater temperatures were set to 400 °C. High-purity nitrogen gas was used for the HESI source gases and for the bath gas of the C-trap. […] The HESI source was configured in positive mode for ionization.\nThe stock solutions were stored in glass vials at −80 °C. Aliquots of all stock solutions were combined in ACN (volumes of individual stock solution solvents are negligible) to obtain a standard solution of all analytes with an individual concentration of 200% of the respective trough level (cmin). Eight individual working standards were prepared by stepwise dilution of this standard solution with concentrations from 10 to 200% cmin (shown in Supplement Table S3). Furthermore, the four individual IS stock solutions were combined and diluted to 50 ng/mL with ACN. Calibration and validation standards were prepared by spiking 50 µL pooled human plasma with 10 µL of the respective working solution. Next, 250 µL IS solution (50 ng/mL in ACN) were added and vortexed vigorously. […] Then, 100 µL supernatant were transferred to 300 µL HPLC insert glass vials and diluted with 100 µL eluent (90% A/10% B). For blank samples, 50 µL pooled human plasma were combined with 10 µL ACN (instead of working solution) and prepared as described above. The calibration and validation standards were freshly prepared before every run. Patient plasma samples were prepared as calibration and validation standards (no additional processing step necessary), except for adding 10 µL ACN instead of 10 µL working standard. Before sample preparation, the frozen plasma samples were thawed in absence of light at 4 °C.\nBlood samples were collected over the entire dosing interval from patients treated with an oral anticancer drug as listed in Supplement Table S4. […] A maximum of two samples at two different time points throughout the entire dosing interval were collected per patient. Treatment duration before collection was at least five half-lives (depending on the specific oral anticancer drug). The samples were collected in K3-EDTA tubes.\nA total of 71 blood samples from 39 patients treated with 14 different oral anticancer drugs were collected (see Supplement Table S4 for details). All patients were recruited from independent outpatient clinics associated with the Comprehensive Cancer Center of the University Hospital Erlangen (CCC Erlangen-EMN). Of 71 blood samples, 41 were taken ±4 h of trough level (cmin)."}},
  "note": "Where “and” joins values, the source holds several entries; their conditions need not be identical. Equal values may be shown once.",
  "data": [
    {"smiles": "O=C(c1cc(Cc2n[nH]c(=O)c3ccccc23)ccc1F)N1CCN(C(=O)C2CC2)CC1", "note": "[Olaparib]", "values": [
      {"measurement": "Long-term stability, 1 month, -20°C Accuracy [%]", "setting": "[1]; validation standard 2xLLOV", "result": 100.3, "unit": "%"},
      {"measurement": "Long-term stability, 1 month, -80°C Accuracy [%]", "setting": "[1]; validation standard 2xLLOV", "result": 98.2, "unit": "%"},
      {"measurement": "Long-term stability, 2 month, -20°C Accuracy [%]", "setting": "[1]; validation standard 2xLLOV", "result": 103.8, "unit": "%"},
      {"measurement": "Long-term stability, 2 month, -80°C Accuracy [%]", "setting": "[1]; validation standard 2xLLOV", "result": 103.3, "unit": "%"},
      {"measurement": "Long-term stability, 3 month, -20°C Accuracy [%]", "setting": "[1]; validation standard 2xLLOV", "result": 99.8, "unit": "%"},
      {"measurement": "Long-term stability, 3 month, -80°C Accuracy [%]", "setting": "[1]; validation standard 2xLLOV", "result": 103.3, "unit": "%"},
      {"measurement": "Long-term stability, 6 weeks, 4°C, without daylight Accuracy [%]", "setting": "[1]; validation standard 2xLLOV", "result": 96.6, "unit": "%"},
      {"measurement": "Long-term stability, 1 month, -20°C Accuracy [%]", "setting": "[1]; validation standard LLOV", "result": 112.8, "unit": "%"},
      {"measurement": "Long-term stability, 1 month, -80°C Accuracy [%]", "setting": "[1]; validation standard LLOV", "result": 110.5, "unit": "%"},
      {"measurement": "Long-term stability, 2 month, -20°C Accuracy [%]", "setting": "[1]; validation standard LLOV", "result": 115.9, "unit": "%"},
      {"measurement": "Long-term stability, 2 month, -80°C Accuracy [%]", "setting": "[1]; validation standard LLOV", "result": 115.8, "unit": "%"},
      {"measurement": "Long-term stability, 3 month, -20°C Accuracy [%]", "setting": "[1]; validation standard LLOV", "result": 111.4, "unit": "%"},
      {"measurement": "Long-term stability, 3 month, -80°C Accuracy [%]", "setting": "[1]; validation standard LLOV", "result": 115.4, "unit": "%"},
      {"measurement": "Long-term stability, 6 weeks, 4°C, without daylight Accuracy [%]", "setting": "[1]; validation standard LLOV", "result": 105.6, "unit": "%"},
      {"measurement": "Long-term stability, 1 month, -20°C Accuracy [%]", "setting": "[1]; validation standard MOV", "result": 95.3, "unit": "%"},
      {"measurement": "Long-term stability, 1 month, -80°C Accuracy [%]", "setting": "[1]; validation standard MOV", "result": 92.9, "unit": "%"},
      {"measurement": "Long-term stability, 2 month, -20°C Accuracy [%]", "setting": "[1]; validation standard MOV", "result": 97.5, "unit": "%"},
      {"measurement": "Long-term stability, 2 month, -80°C Accuracy [%]", "setting": "[1]; validation standard MOV", "result": 96.8, "unit": "%"},
      {"measurement": "Long-term stability, 3 month, -20°C Accuracy [%]", "setting": "[1]; validation standard MOV", "result": 97.6, "unit": "%"},
      {"measurement": "Long-term stability, 3 month, -80°C Accuracy [%]", "setting": "[1]; validation standard MOV", "result": 96.7, "unit": "%"},
      {"measurement": "Long-term stability, 6 weeks, 4°C, without daylight Accuracy [%]", "setting": "[1]; validation standard MOV", "result": 107.5, "unit": "%"},
      {"measurement": "Long-term stability, 1 month, -20°C Accuracy [%]", "setting": "[1]; validation standard ULOV", "result": 99.1, "unit": "%"},
      {"measurement": "Long-term stability, 1 month, -80°C Accuracy [%]", "setting": "[1]; validation standard ULOV", "result": 98.1, "unit": "%"},
      {"measurement": "Long-term stability, 2 month, -20°C Accuracy [%]", "setting": "[1]; validation standard ULOV", "result": 102.1, "unit": "%"},
      {"measurement": "Long-term stability, 2 month, -80°C Accuracy [%]", "setting": "[1]; validation standard ULOV", "result": 101.1, "unit": "%"},
      {"measurement": "Long-term stability, 3 month, -20°C Accuracy [%]", "setting": "[1]; validation standard ULOV", "result": 98.9, "unit": "%"},
      {"measurement": "Long-term stability, 3 month, -80°C Accuracy [%]", "setting": "[1]; validation standard ULOV", "result": 100.7, "unit": "%"},
      {"measurement": "Long-term stability, 6 weeks, 4°C, without daylight Accuracy [%]", "setting": "[1]; validation standard ULOV", "result": 105.6, "unit": "%"},
      {"measurement": "Freeze-Thaw Accuracy [%]", "setting": "[2]; validation standard 2xLLOV", "result": 99.5, "unit": "%"},
      {"measurement": "Freeze-Thaw Accuracy [%]", "setting": "[2]; validation standard LLOV", "result": 113.4, "unit": "%"},
      {"measurement": "Freeze-Thaw Accuracy [%]", "setting": "[2]; validation standard MOV", "result": 96.6, "unit": "%"},
      {"measurement": "Freeze-Thaw Accuracy [%]", "setting": "[2]; validation standard ULOV", "result": 100.5, "unit": "%"},
      {"measurement": "cmin", "setting": "[3]", "result": 1570, "unit": "ng/mL"},
      {"measurement": "Short-time stability (1h, 56°C) Accuracy [%]", "setting": "[4]; validation standard 2xLLOV", "result": 64.1, "unit": "%"},
      {"measurement": "Short-time stability (24h, 4°C, without daylight) Accuracy [%]", "setting": "[4]; validation standard 2xLLOV", "result": 101.8, "unit": "%"},
      {"measurement": "Short-time stability (24h, RT, with daylight) Accuracy [%]", "setting": "[4]; validation standard 2xLLOV", "result": 91.3, "unit": "%"},
      {"measurement": "Short-time stability (24h, RT, without daylight) Accuracy [%]", "setting": "[4]; validation standard 2xLLOV", "result": 90.8, "unit": "%"},
      {"measurement": "Short-time stability (1h, 56°C) Accuracy [%]", "setting": "[4]; validation standard LLOV", "result": 80.6, "unit": "%"},
      {"measurement": "Short-time stability (24h, 4°C, without daylight) Accuracy [%]", "setting": "[4]; validation standard LLOV", "result": 110.7, "unit": "%"},
      {"measurement": "Short-time stability (24h, RT, with daylight) Accuracy [%]", "setting": "[4]; validation standard LLOV", "result": 108.3, "unit": "%"},
      {"measurement": "Short-time stability (24h, RT, without daylight) Accuracy [%]", "setting": "[4]; validation standard LLOV", "result": 110.6, "unit": "%"},
      {"measurement": "Short-time stability (1h, 56°C) Accuracy [%]", "setting": "[4]; validation standard MOV", "result": 49.4, "unit": "%"},
      {"measurement": "Short-time stability (24h, 4°C, without daylight) Accuracy [%]", "setting": "[4]; validation standard MOV", "result": 98.6, "unit": "%"},
      {"measurement": "Short-time stability (24h, RT, with daylight) Accuracy [%]", "setting": "[4]; validation standard MOV", "result": 89.4, "unit": "%"},
      {"measurement": "Short-time stability (24h, RT, without daylight) Accuracy [%]", "setting": "[4]; validation standard MOV", "result": 88.9, "unit": "%"},
      {"measurement": "Short-time stability (1h, 56°C) Accuracy [%]", "setting": "[4]; validation standard ULOV", "result": 42.9, "unit": "%"},
      {"measurement": "Short-time stability (24h, 4°C, without daylight) Accuracy [%]", "setting": "[4]; validation standard ULOV", "result": 99.7, "unit": "%"},
      {"measurement": "Short-time stability (24h, RT, with daylight) Accuracy [%]", "setting": "[4]; validation standard ULOV", "result": 99.0, "unit": "%"},
      {"measurement": "Short-time stability (24h, RT, without daylight) Accuracy [%]", "setting": "[4]; validation standard ULOV", "result": 94.2, "unit": "%"},
      {"measurement": "Autosampler (24h, 4°C) Accuracy [%]", "setting": "[5]; validation standard 2xLLOV", "result": 103.8, "unit": "%"},
      {"measurement": "Autosampler (72h, 4°C) Accuracy [%]", "setting": "[5]; validation standard 2xLLOV", "result": 100.5, "unit": "%"},
      {"measurement": "Autosampler (24h, 4°C) Accuracy [%]", "setting": "[5]; validation standard LLOV", "result": 111.6, "unit": "%"},
      {"measurement": "Autosampler (72h, 4°C) Accuracy [%]", "setting": "[5]; validation standard LLOV", "result": 111.2, "unit": "%"},
      {"measurement": "Autosampler (24h, 4°C) Accuracy [%]", "setting": "[5]; validation standard MOV", "result": 100.5, "unit": "%"},
      {"measurement": "Autosampler (72h, 4°C) Accuracy [%]", "setting": "[5]; validation standard MOV", "result": 98.0, "unit": "%"},
      {"measurement": "Autosampler (24h, 4°C) Accuracy [%]", "setting": "[5]; validation standard ULOV", "result": 103.8, "unit": "%"},
      {"measurement": "Autosampler (72h, 4°C) Accuracy [%]", "setting": "[5]; validation standard ULOV", "result": 100.5, "unit": "%"},
      {"measurement": "Measured plasma concentration", "setting": "[6]; 600 mg/day, 12 h, ±4 h of trough level: no", "result": "4442.9 ng/mL and 5552.4 ng/mL and 6053.6 ng/mL"},
      {"measurement": "Interpatient Coefficient of Variation [%]", "setting": "[6]; patient plasma concentrations", "result": 51.6, "unit": "%"},
      {"measurement": "Median Concentration of All Samples [% of r.c.]", "setting": "[6]; patient plasma, all samples, r.c. = respective cmin", "result": "287.6 % of r.c."}
    ]}
  ]
}
